Patent US7741032B2, “Genotyping assay to predict gamma glutamyl hydrolase (GGH) activity” (St. Jude Children's Research Hospital, Inc., priority 2004, dated 2010)

Legend:
T127I variant GGH = biological target: T1, T127I variant GGH (Homo sapiens, UniProt Q92820, T151I); assay: Enzyme kinetic analysis of heterologously expressed wild-type and T127I variant GGH with MTX-PG as substrate; format: biochemical; conditions: recombinant GGH, substrate as labelled; for catalytic efficiency (Vmax/Km) reduction of T127I variant: versus wild-type, p=0.003
T1 construct: A cDNA encoding the 294 amino acids of human GGH (with out leading peptide) was cloned by RT-PCR; made in house; host or cells: E. coli BL21(DE3)pLysS
T1 sequence (Q92820 25-318 T151I): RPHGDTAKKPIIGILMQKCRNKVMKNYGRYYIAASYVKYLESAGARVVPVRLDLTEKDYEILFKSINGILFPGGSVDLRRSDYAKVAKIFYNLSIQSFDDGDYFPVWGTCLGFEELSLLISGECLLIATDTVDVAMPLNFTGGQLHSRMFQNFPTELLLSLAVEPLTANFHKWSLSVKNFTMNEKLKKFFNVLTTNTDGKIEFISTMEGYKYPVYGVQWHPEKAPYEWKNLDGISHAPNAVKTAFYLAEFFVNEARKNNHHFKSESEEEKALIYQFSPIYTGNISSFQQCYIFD
Protocol: Wild-type human GGH cloning and site-directed mutagenesis: A cDNA encoding the 294 amino acids of human GGH (with out leading peptide) was cloned by RT-PCR and TA cloning (Invitrogen, Carlsbad, Calif.) using RNA isolated from human CEM cells. Plasmid DNA was purified using the mini prep kit (Qiagen, Santa Clarita, Calif.). After sequencing, the selected cDNA clone was subcloned into the pET28b vector (Novagen, Madison, Wis.) from Nde1 and BamH1 sites, and an N-terminal HisTag was added. This HisTag enabled the purification of large quantities of protein and had no effect on GGH activity (Chave, K. J. et al., 2000, id). Site-directed mutagenesis was performed with the QuickChange II kit (Stratagene, La Jolla, Calif.) according to the manufacturer's protocol. The primers used for mutagenesis of wild-type human GGH to T127I were
Expression and characterization of T127I variant GGH: Plasmids carrying wild-type and T127I variant GGH were used to transform E. coli strain BL21(DE3)pLysS competent cells (Novagen, Madison, Wis.). The E. coli cells were grown in LB medium containing 30 μg/ml kanamycin and 34 μg/ml chloramphenicol at 37° C. to OD600 about 0.6 and expression was induced with 1 mM isopropyl-β-D-thiogalactoside for 3 h. Cells were harvested by centrifugation at 5,000 g for 5 min at 4° C., and were kept as a frozen pellet at −70° C. Target proteins were extracted using BugBuster His-Bind Purification kit (Novagen, Madison, Wis.), followed by gel filtration chromatography at 4° C. on a HiLoad 26/60 S200 Superdex column (Amersham Pharmacia Biotech, Sweden) in 0.05 M sodium acetate buffer, pH5.5, containing 0.05 M 2-mercaptoethanol, 1 M NaCl, and 1 mM EDTA. Fractions containing target proteins were pooled and proteins were concentrated using Viva Cell 70 ml Concentrator, followed by Viva Cpin 2 ml Concentrator (Vivascience, Edgewood, NY).
Wild-type and T127I variant forms of human GGH were separated using NuPAGE™ 4-12% Bis-Tris Gel (Invitrogen, Carlsbad, Calif.). Protein bands were visualized by silver staining (Amersham Pharmacia Biotech, Sweden). Western blot was carried out as described (Tai, H. L. et al., “Thiopurine S-methyltransferase deficiency: two nucleotide transitions define the most prevalent mutant allele associated with loss of catalytic activity in Caucasians” Am J Hum Genet 58:694-702 (1996)). Polyclonal anti-human GGH rabbit antibody was kindly provided by Drs Thomas J. Ryan and […]. GGH activity was measured using MTEN buffer with 25 mM DTT. The assay mixture without substrate was incubated at 37° C. for 20 min, followed by incubation with substrate at 37° C. for 5 min and boiling for 5 min. In each experiment, wild-type and variant GGH were analyzed in parallel using varying concentrations of MTX-PG5 or MTX-PG2 as substrate. The substrate and the reaction products were analyzed by HPLC, and GGH activity was calculated by total amount of product formed per min per μg protein. Two independent experiments were carried on with each substrate. Nonlinear least-squares regression was used to estimate Km and Vmax by fitting a Michaels-Menten model as described earlier (Panetta, J. C. et al., id).

GGH = biological target: T2, GGH (Homo sapiens, UniProt Q92820, T151I); conditions: MTXPG2 as the substrate; reported by Chave et al. 2003; cited from earlier work
T2 sequence (Q92820 25-318 T151I): T1 sequence (Q92820 25-318 T151I)

SMILES	difference in Km between the wild-type and T127I variant (T127I variant GGH)	difference in Vmax between the wild-type and T127I variant (T127I variant GGH)	difference in catalytic efficiency between the wild-type and T127I variant (T127I variant GGH)	effect of T127I mutation on GGH activity (GGH)	Km increase of T127I variant compared to wild-type GGH (T127I variant GGH; p=0.021) [fold]	catalytic efficiency (Vmax/Km) reduction of T127I variant (T127I variant GGH) [%]	catalytic efficiency (Vmax/Km) reduction of T127I variant (T127I variant GGH; listed as MTXPG5) [%]
CN(Cc1cnc2nc(N)nc(N)c2n1)c1ccc(C(=O)N[C@@H](CCC(=O)N[C@@H](CCC(=O)O)C(=O)O)C(=O)O)cc1 [MTX-PG2]	not a significant difference	not a significant difference	not a significant difference	did not change GGH activity			
CN(Cc1cnc2nc(N)nc(N)c2n1)c1ccc(C(=O)N[C@@H](CCC(=O)N[C@@H](CCC(=O)N[C@@H](CCC(=O)N[C@@H](CCC(=O)N[C@@H](CCC(=O)O)C(=O)O)C(=O)O)C(=O)O)C(=O)O)C(=O)O)cc1 [MTX-PG5]		not a significant difference			2.7	67	67.5
